Reference: ChEMBL document CHEMBL3351864, “Beyond paraquats: dialkyl 3,3'- and 3,4'-bipyridinium amphiphiles as antibacterial agents” (2014)

Legend:
Type in all cases: functional
Staphylococcus aureus = assay: Antibacterial activity against Staphylococcus aureus SH1000 after 72 hrs by broth microdilution method; settings: SH1000, 72 h
Escherichia coli = assay: Antibacterial activity against Escherichia coli MC4100 after 72 hrs by broth microdilution method; settings: MC4100, 72 h
Pseudomonas aeruginosa = assay: Antibacterial activity against Pseudomonas aeruginosa PAO1 WT after 72 hrs by broth microdilution method; settings: PAO1, 72 h
Enterococcus faecalis = assay: Antibacterial activity against Enterococcus faecalis OG1RF after 72 hrs by broth microdilution method

Row | MIC (Staphylococcus aureus) | MIC (Escherichia coli) | MIC (Pseudomonas aeruginosa) | MIC (Enterococcus faecalis) | SMILES
1 | 2 µM | 2 µM | 8 µM | 2 µM | CCCCCCCCCC[n+]1cccc(-c2ccc[n+](CCCCCCCCCC)c2)c1
2 | 2 µM | 2 µM | 16 µM | 2 µM | CCCCCCCCCC[n+]1ccc(-c2ccc[n+](CCCCCCCCCC)c2)cc1
3 | 125 µM | 125 µM | 250 µM | 125 µM | CCCCCCCCCCCC[n+]1cccc(-c2ccc[n+](C)c2)c1
4 | 2 µM | 2 µM | 8 µM | 1 µM | CCCCCCCCCCCCCC[n+]1cccc(-c2ccc[n+](CCCCCCCCCCCC)c2)c1
5 | 8 µM | 32 µM | 63 µM | 8 µM | CCCCCCCCCCCC[N+](C)(C)Cc1ccccc1 [BENZODODECINIUM CHLORIDE]
6 | 2 µM | 16 µM | 63 µM | 4 µM | CCCCCCCCCCCCCCCC[n+]1ccc(-c2ccc[n+](CCCCCCCCCCCCCCCC)c2)cc1
7 | 8 µM | 63 µM | 250 µM | 63 µM | CCCCCCCCCCCC[n+]1cccc(-c2cccnc2)c1
8 | 8 µM | 32 µM | 250 µM | 63 µM | CCCCCCCCCCCC[n+]1cccc(-c2ccc[n+](Cc3ccccc3)c2)c1
9 | 32 µM | 250 µM | > 500 µM | 125 µM | CCCCCCCC[n+]1cccc(-c2ccc[n+](CCCCCCCC)c2)c1
10 | 2 µM | 8 µM | 16 µM | 1 µM | CCCCCCCCCCCCCCCC[n+]1cccc(-c2ccc[n+](CCCCCCCCCCCCCCCC)c2)c1
11 | 2 µM | 2 µM | 16 µM | 1 µM | CCCCCCCCCCCCCC[n+]1ccc(-c2ccc[n+](CCCCCCCCCCCCCC)c2)cc1
12 | 0.5 µM | 0.5 µM | 1 µM | 0.5 µM | CCCCCCCCCCC[n+]1ccc(-c2ccc[n+](CCCCCCCCCCC)c2)cc1
13 | 1 µM | 1 µM | 2 µM | 1 µM | CCCCCCCCCCCC[n+]1cccc(-c2ccc[n+](CCCCCCCCCCCC)c2)c1
14 | 125 µM | 125 µM | > 500 µM | 125 µM | CCCCCCCC[n+]1ccc(-c2ccc[n+](CCCCCCCC)c2)cc1
15 | 2 µM | 4 µM | 16 µM | 2 µM | CCCCCCCCCCCCCC[n+]1cccc(-c2ccc[n+](CCCCCCCCCCCCCC)c2)c1
16 | 0.5 µM | 1 µM | 2 µM | 1 µM | CCCCCCCCCCC[n+]1cccc(-c2ccc[n+](CCCCCCCCCCC)c2)c1
17 | 1 µM | 0.5 µM | 2 µM | 1 µM | CCCCCCCCCCCC[n+]1ccc(-c2ccc[n+](CCCCCCCCCCCC)c2)cc1
18 | 2 µM | 2 µM | 4 µM | 2 µM | CCCCCCCCCCCC[n+]1cccc(-c2ccc[n+](CCCCCCCCCC)c2)c1
